Consider 24 compounds from patent US7125958B1, “Malaria polypeptides” (priority 1997, dated 2006).

One data set relates to FCR3S1.2 rosettes. Nature of the data set: Rosette disruption assay, FCR3S1.2. Type of data set: cell-based, Plasmodium falciparum. The settings on record: incubated with GAGs for 1 h at 37° C., compared to control culture. On the procedure: FIG. 5. Effect of glycosaminoglycans (GAGS) on P. falciparum resetting. […] FCR3S1.2 cultures were incubated with GAGs for 1 h at 37° C. and compared to control culture. Results are the means and standard error of three separate experiments.
The assay was performed essentially as described (Carlson, J. and M. Wahlgren, 1992. Plasmodium falciparum erythrocytes resetting is mediated by promiscuous lectin-like interactions. J. Exp. Med., 176, 1311–1317). The recombinant fission proteins ([…] in PBS of DBL-1-GST or ATS-GST) were added to 25 μl aliquots of a ≈80% rosetting culture of FCR3S1.2 in a micro-titre plate. The mixtures were incubated for 30 min. at 37° C. after which the rosetting rate was scored and compared to mock treated controls after staining with acridine orange.

For data set [1], the system named is DBL-1-GST fusion protein (FCR3S1.2-PfEMP1). Nature of the data set: Heparin blocking assay: inhibition of DBL-1-GST binding to heparin-sepharose by GAGs. The arrangement: species or system Plasmodium falciparum. The settings on record: GAG titrated from 10 to 0.5 mg/ml, SDS-PAGE. The protocol: The potential binding of the fusion proteins to heparin was studied by mixing either DBL-1-GST, ATS-GST fusion protein or GST alone (20 μl, 150 μg/ml in PBS) with 20 μl of 50% heparin-sepharose (Pharmacia) and incubating for 5 min at room temperature in the absence of serum; binding to uncoupled sepharose was used as control. The heparin-sepharose and protein mixture was washed 3 times in large volumes of PBST buffer (PBS plus 0.05% Tween-20) before extracting bound proteins in loading-buffer for 10% SDS-PAGE. Inhibition of DBL-1-GST fission protein binding to heparin with heparin, heparan sulfate or chondroitin sulfate (Lövens Kemiske Fabrik, Denmark, more than 90% pure) was also tested. Twenty μl of 150 μg/ml DBL-1-GST fusion protein was mixed separately for 5 minutes with an equal volume of heparin, heparan sulfate, or chondroitin sulfate, titrated from 10 to 0.5 mg/ml, before the addition of heparin sepharose. The inhibitory activities were checked by SDS-PAGE.

The subject of a further data set is FCR3S1 rosettes. Nature of the data set: Rosette disruption assay, laboratory strain FCR3S1. It is filed as cell-based, Plasmodium falciparum. The note with it: for sensitivity of FCR3S1 rosettes to the compound: 30 minutes at 37° C.; for rosette disrupting effect of heparin disaccharides: not shown; for rosette reversion by disaccharide: at 45 mM; for reduction of rosette disruption efficiency compared to native heparin: modified heparin. From the text: (§1) Parasites and rosetting—Two distinct highly resetting P. Falciparum laboratory stains were used: FCR3S1 (previously named R^+PA1) and TM 284 (isolated in Thailand, 1990). Parasites were cultivated according to standard procedures (Udomsangpetch et al. 1989). Field isolates were obtained from patients attending the Albert Schweitzer Hospital, Lambaréné, Gabon between April and June 1996. […] A venous or capillary blood sample was taken after patients or parents informed consent. Blood was washed three times with RPMI and cultivated according to standard procedures (Udomsangpetch et al. 1989). Assessment for parasite growth and resetting was made every 6–8 hours using a Leitz UV-light microscope. Briefly, an aliquot of parasite culture was mixed with a small amount of acridine orange and the sample was analyzed. Assays were performed on rosetting isolates when the majority of parasites in culture had reached the trophozoite stage. The resetting rate was expressed as the number of infected erythrocytes in rosettes relative to the total number of late stage infected erythrocytes. Three hundred infected cells were counted. Parasitemia was calculated as the number of infected erythrocytes relative to the number of uninfected erythrocytes.
(§2) For laboratory stains, parasite cultures with rosetting rates of 50–70% and parasitemia 5–8% were used Aliquots (12.5–25 μl) of parasite cultures were mixed with equal amounts of sulfated glycoconjugate compound in RPMI in a 96-well microtiter plate, at final concentrations indicated After incubation for 30 minutes at 37° C. assessment for resetting was made as described above. The resetting rate was compared to that of culture mixed with RPMI.

A further data set relates to TM 284 rosettes. The data set is described as follows: Rosette disruption assay, laboratory strain TM 284. It is filed as cell-based, Plasmodium falciparum. The note with it: for sensitivity of TM 284 rosettes to the compound: relative to FCR3S1.
Text: as §1, §2

Data set [2] deals with rosettes of wild isolates. The data set is described as follows: Rosette disruption assay, wild (patient) isolates. It is filed as cell-based, Plasmodium falciparum. The settings on record: for relative effectiveness as rosette disrupter on the whole collection of wild isolates: thirtytwo patient isolates; for rosette disruption of wild / fresh isolates: both groups of isolates.
Text: as §1, §2

Data set [3] has as its system DBL-1-GST fusion protein (FCR3S1.2-PfEMP1). The data set is described as follows: Erythrocyte blocking assay: inhibition of DBL-1-GST binding to RBC by GAGs. Type of data set: cell-based, Plasmodium falciparum. The settings on record: GAG titrated from 20 to 8 mg/ml. The protocol:
Ten-well immunofluorescence glass-slides were precoated with 10% poly-L-lysine in PBS for 30 min. Monolayers of RBC were made by addition of 20 μl of 0.5% 3× washed bloodgroup O Rh^+RBC in PBS to each well. Twenty μl DBL-1-GST, ATS-GST or GST alone (80 μg/ml) in PBS was added to the wells for 30 min. The DBL-1-GST fusion protein was in subsequent experiments incubated in the presence of heparin, heparan sulfate or chondroitin sulfate (titrated from 20 to 8 mg/ml) to study the inhibitory activity of each GAG. Slides were washed 3 times with PBS and the fusion protein-binding was detected with the biotin-labelled anti-GST mAb and an EXTRAVIDIN (a modified avidin) FITC conjugate (Sigma). The fluorescence was assessed in a Nikon Optiphot-2 UV microscope, using a ×10 ocular and an oil lens with a magnification of ×100.

The subject of data set [4] is rosettes of fresh P. falciparum-isolates. The note with it: cited from earlier work.
Another data set has as its system FCR3S1 rosetting. It is filed as cell-based, Plasmodium falciparum. The note with it: compared to mock treated control cultures.
The test system of a further data set is TM 284 rosetting. It is filed as cell-based, Plasmodium falciparum. The settings on record: compared to mock treated control cultures.
Data set [5] deals with uninfected RBC rosette binding capacity. It is filed as cell-based, Plasmodium falciparum. The settings on record: compared to non-treated RBC.

“Also recorded” adds a separate entry of the source. Like-named read-outs stand apart in the source and are kept apart here.

For hyaluronic acid, in the data set on FCR3S1.2 rosettes, the “disruptive activity of GAGs on FCR3S1.2 rosettes” value (from here on “disruptive activity of GAGs”) is on record as “neither chondroitin sulfate A, keratan sulfate, nor hyaluronic acid had any effect”.
Turning to chondroitin sulfate, the “inhibition of DBL-1-GST binding to heparin-sepharose” value (“inhibition … to heparin-sepharose” below) in data set [1] is given as “but not with chondroitin sulfate”. The “sensitivity of FCR3S1 rosettes to the compound” value (shortened to “sensitivity of FCR3S1 rosettes”) in the data set on FCR3S1 rosettes is reported as “little or no effect”. Besides, the “sensitivity of TM 284 rosettes to the compound” value (shortened to “sensitivity of TM 284 rosettes”) in the data set with TM 284 rosettes was “relatively higher sensitivity”. Further, the “relative effectiveness as rosette disrupter on the whole collection of wild isolates” value (shortened to “relative effectiveness”) in [2] was “the least effective”.
Consider heparin, for which, in data set [3], the “inhibition of DBL-1-GST binding to erythrocytes” value is given as “could be inhibited with small amounts”. For the same compound, the “disruptive activity of GAGs” value in the data set on FCR3S1.2 rosettes was “sensitive”. Further, the “fresh isolates whose rosettes were disrupted” value in data set [4] (54 fresh isolates) is on record as 50%. For the same compound, the “number of fresh isolates whose rosettes were disrupted” value in data set [4] (out of 54 fresh isolates) is reported as 27. Moreover, the “inhibition … to heparin-sepharose” value in [1] is listed as “dose-dependently be competed out”. The “sensitivity of FCR3S1 rosettes” value in the data set with FCR3S1 rosettes is recorded as “high sensitivity”. Besides, in the data set with FCR3S1 rosettes (heparin 1 mg/ml vs I-S 30 mM), the “efficiency of heparin chain relative to disaccharide I-S, weight basis” value is “around 20 fold”. Moreover, the “efficiency of heparin chain relative to disaccharide I-S, molar basis” value with FCR3S1 rosettes (heparin ≃70 μM vs I-S 30 mM) is on record as “around 500 fold”. This compound also yielded a rosettes disrupted in the data set with TM 284 rosettes (at 1 mg/ml (not shown)) of 80%. Moreover, the “sensitivity of TM 284 rosettes” value in the data set on TM 284 rosettes is “less sensitive”. In data set [2], the “relative effectiveness” value was “intermediate position”.
In the case of Chondroitin sulfate B, the “disruptive activity of GAGs” value in the data set with FCR3S1.2 rosettes is on record as “slight effect only at high concentrations”.
Take `N[C@H]1C(O)O[C@H](CO)[C@@H](O[C@@H]2OC(C(=O)O)=C[C@H](O)[C@H]2O)[C@@H]1O` (stereo partly drawn) [IV-H, ΔHexA-GlcN]: the “rosette disrupting effect of heparin disaccharides” value (shortened to “rosette disrupting effect”) in the data set with FCR3S1 rosettes is reported as “no rosette disrupting effect”.
As for `O=S(=O)(O)NC1C(O)OC(CO)C(O)C1O` (stereo not drawn) [N-sulfated galactosamine], in the data set on FCR3S1 rosettes, the “rosette disrupting activity of monosaccharides” value (“rosette disrupting activity” for short) was “lacked rosette disrupting activity and none and does not”.
With chondroitin sulfate A, the “disruptive activity of GAGs” value with FCR3S1.2 rosettes is reported as “neither chondroitin sulfate A, keratan sulfate, nor hyaluronic acid had any effect”.
`CC(=O)NC1C(O)OC(CO)C(OC2OC(C(=O)O)=CC(O)C2O)C1O` (stereo not drawn) [IV-A, ΔHexA-ClcNAc]: the “rosette reversion by disaccharide” value in the data set on FCR3S1 rosettes was “completely lacked effect”.
In the case of 2-O-desulfated heparin, the “reduction of rosette disruption efficiency compared to native heparin” value in the data set on FCR3S1 rosettes was about 10 fold.
Take fucoidan: in data set [2], the “rosette disruption of wild / fresh isolates” value is “strong rosette disrupter; also recorded: disrupted rosettes of almost all fresh isolates” and the “relative effectiveness” value is “most effective rosette disrupter for most isolates”.
For `O=C(O)C1=C[C@H](O)[C@@H](OS(=O)(=O)O)[C@H](O[C@H]2[C@H](O)[C@@H](NS(=O)(=O)O)[C@@H](O)O[C@@H]2COS(=O)(=O)O)O1` [I-S, ΔHexA(2-OSO3)-GlcNSO3(6-OSO3)], the “rosette disruption by disaccharide titrated against heparin” value in the data set on FCR3S1 rosettes (30 mM disaccharide, preliminary experiment) was “disrupted to the same extent as with heparin at 1 mg/ml”.
In the case of dermatan sulfate, the “sensitivity of FCR3S1 rosettes” value in the data set with FCR3S1 rosettes was “little or no effect”. For the same compound, the “sensitivity of TM 284 rosettes” value in the data set on TM 284 rosettes is listed as “relatively higher sensitivity”. Moreover, in data set [2], the “relative effectiveness” value is “intermediate position”.
For trypsin, the “change in rosetting after treatment of whole cultures, FCR3S1” value (from here on “change in rosetting … FCR3S1”) in the data set on FCR3S1 rosetting was “rosetting was abolished completely”. Besides, the “change in rosetting after treatment of whole cultures, TM 284” value (shortened to “change in rosetting … TM 284”) in the data set on TM 284 rosetting is “rosetting was abolished completely”.
Turning to `O=S(=O)(O)N[C@H]1C(O)O[C@H](CO)[C@@H](O)[C@@H]1O` (stereo partly drawn) [N-sulfated glucosamine], the “rosette disrupting activity” value with FCR3S1 rosettes is listed as “total rosette disruption; also recorded: abolishes rosetting”; in the data set on FCR3S1 rosettes (listed as N-sulfated mono-saccharide glucosamine), “good anti-rosetting activity”.
For the compound `[O-][I+3]([O-])([O-])O` [Sodium periodate], the “change in rosetting … FCR3S1” value in the data set on FCR3S1 rosetting is recorded as “intermediate effect”. The “decrease of rosette binding capacity of treated uninfected RBC” value in data set [5] worked out at 4 fold. The “change in rosetting … TM 284” value in the data set on TM 284 rosetting is given as “intermediate effect”.
Consider chymotrypsin, for which the “change in rosetting … FCR3S1” value with FCR3S1 rosetting was “rosetting was abolished completely”. The “change in rosetting … TM 284” value with TM 284 rosetting is recorded as “rosetting was abolished completely”.
For the compound keratan sulfate, in the data set on FCR3S1.2 rosettes, the “disruptive activity of GAGs” value is given as “neither chondroitin sulfate A, keratan sulfate, nor hyaluronic acid had any effect”.
In the case of `O=C(O)C1=C[C@H](O)[C@@H](O)[C@H](O[C@H]2[C@H](O)[C@@H](NS(=O)(=O)O)C(O)O[C@@H]2CO)O1` (stereo partly drawn) [IV-S, ΔHexA-GlcNSO3], the “rosette reversion by disaccharide” value in the data set on FCR3S1 rosettes is given as “complete rosette reversion”.
Consider 6-O-desulfated heparin, for which the “reduction of rosette disruption efficiency compared to native heparin” value in the data set with FCR3S1 rosettes is recorded as about 10 fold.
Regarding `NC1C(O)OC(CO)C(OC2OC(C(=O)O)=CC(O)C2OS(=O)(=O)O)C1O` (stereo not drawn) [III-H, ΔHexA(2-OSO3-GlcN)], the “rosette disrupting effect” value in the data set on FCR3S1 rosettes was “no rosette disrupting effect”.
On to dextran sulfate, for which, in [2], the “rosette disruption of wild / fresh isolates” value is “much less effective that GAGs in most of the strains” and the “relative effectiveness” value is reported as “intermediate position”.
As for `N[C@H]1C(O)O[C@H](COS(=O)(=O)O)[C@@H](O[C@@H]2OC(C(=O)O)=C[C@H](O)[C@H]2O)[C@@H]1O` (stereo partly drawn) [II-H, ΔHexA-GlcN(6-OSO3)], the “rosette disrupting effect” value in the data set with FCR3S1 rosettes was “no rosette disrupting effect”.
Regarding `CC(=O)N[C@H]1C(O)O[C@H](COS(=O)(=O)O)[C@@H](O)[C@@H]1O` (stereo partly drawn) [N-acetylated glucosamine with an O-sulfate ester at C-6], the “rosette disrupting activity” value in the data set with FCR3S1 rosettes is reported as “Some activity”.
On to heparan sulfate, for which the “inhibition of DBL-1-GST binding to erythrocytes” value in data set [3] is reported as “could be inhibited with small amounts”. The “disruptive activity of GAGs” value with FCR3S1.2 rosettes is on record as “sensitive”. The “inhibition … to heparin-sepharose” value in data set [1] is “dose-dependently be competed out”. Besides, the “sensitivity of FCR3S1 rosettes” value in the data set with FCR3S1 rosettes is recorded as “high sensitivity”. Also, the “sensitivity of TM 284 rosettes” value in the data set on TM 284 rosettes is given as “less sensitive”. Further, the “relative effectiveness” value in data set [2] was “intermediate position”.
